This passage reports IC50 and Activity results from ChEMBL document CHEMBL5120822, “Inhibition of the P2X7/NLRP3 Inflammasome Signaling Pathway by Deacetylgedunin from Toona sinensis” (J Nat Prod, 2022).

Active and inactive are the calls of the source. The rule behind the calls is not given here.

Data set [1] concerns RAW264.7. Briefly: Antiinflammatory activity in mouse RAW264.7 assessed as inhibition of LPS-induced NO production incubated for 1 hrs followed by LPS stimulation for 18 hrs by Griess reagent based assay. Type of data set: functional, cell-based. A general note: The Griess reaction detects nitrite, a stable product of nitric oxide.
The test system of data set [2] is RAW264.7. Briefly: Cytotoxicity against mouse RAW264.7 cells derived macrophage assessed as reduction in cell viability upto 40 uM incubated for 24 hrs by CCK-8 assay. The following applies: raw264.7, 24 h. Type of data set: toxicity, cell-based. (Formazan colour is commonly taken as a measure of viable cells.)
Data set [3] concerns THP-1. As to the kind of experiment: Antiinflammatory activity against PMA-differentiated human THP-1 cells assessed as reduction in IL-1beta level at 20 uM incubated for 1 hrs followed by LPS stimulation for 12 hrs and ATP addition for 0.5 hrs by ELISA. The format is functional, cell-based. The following applies: time 13.5 hrs. Background: In an ELISA, binding on a coated surface is turned into a signal by an enzyme label.

In data set [4] the test system is J774.1. As to the kind of experiment: Cytotoxicity against mouse J774.1 cells derived macrophage assessed as reduction in cell viability upto 40 uM incubated for 24 hrs by CCK-8 assay. The format is toxicity, cell-based. The following applies: j774.1, 24 h.
Data set [5] has as its system THP-1. Briefly: Cytotoxicity against human THP-1 cells derived macrophage assessed as reduction in cell viability upto 40 uM incubated for 24 hrs by CCK-8 assay. The format is toxicity, cell-based. The following applies: thp-1, 24 h.

Regarding `CNC(=N)NCCC[C@H](N)C(=O)O` [TILARGININE], the IC50 in data set [1] is 44.4 µM.

With `CC(=O)O[C@@H]1C[C@H]2C(C)(C)C(=O)C=C[C@]2(C)[C@H]2CC[C@@]3(C)[C@@H](c4ccoc4)OC(=O)[C@H]4O[C@]43[C@@]21C`, the Activity result in data set [2], in data set [4] and in data set [5] was “Toxic” in each case. Further, in data set [3], the outcome was Active. In addition, the half-maximal inhibitory concentration (IC50) in data set [1] was 8.85 µM.

`CC1(C)C(=O)C=C[C@]2(C)[C@H]3CC[C@@]4(C)[C@H](c5ccoc5)OC(=O)[C@H]5O[C@]54[C@]3(C)C(=O)C[C@@H]12` [DEACETOXY-7-OXOGEDUNIN]: the Activity result in data set [2] and in data set [5] was “Toxic” throughout. Besides, the result in data set [3] was Active. In addition, the half-inhibitory concentration (IC50) in data set [1] is 9.46 µM.

As a reminder, the IC50 is the concentration that gives 50% inhibition.
